Data as given in US20240417406A1, “NITROGEN-CONTAINING TRICYCLIC COMPOUND AND PHARMACEUTICAL USE THEREOF” (JAPAN TOBACCO INC., priority 2021, published 2024).

These compounds were tested against human PDHK2 (hPDHK2) (Homo sapiens (Human), UniProt Q15119) (assay: Inhibitory action of PDHK2 activity (PDH/hPDHK2 complex, residual PDH activity by NADH absorbance at 340 nm)). Settings: FLAG-tagged recombinant hPDHK2 with porcine heart PDH complex; PDHK reaction 45 min at room temperature.
Type: biochemical
Procedure: In the case of human PDHK2 (hPDHK2, NCBI Reference Database Accession number NM_002611.4), modified hPDHK2 cDNA wherein FLAG-Tag sequence was added to the N terminal of hPDHK2 cDNA clone (pReceiver-M01/PDK2-GeneCopoeia) as the base was prepared by polymerase chain reaction (PCR) and ligated to the NdeI/EcoRI site of pET-17b vector (Merck KGaA, Catalog Number 69663-3). The recombinant construct was transformed into Escherichia coli DH5a. The recombinant clones were identified, and plasmid DNA was isolated and subjected to the DNA sequence analysis. One clone which had the expected nucleic acid sequence was selected for expression work.
For expression of hPDHK2 activity, Escherichia coli strain BL21(DE3) cells (Merck KGaA, Catalog Number 69450-4) were transformed with the pET17b vector containing modified hPDHK2 cDNA. The Escherichia coli were grown to an optical density 0.6 ([…]) at 30° C. Protein expression was induced by the addition of 500 μmol/L isopropyl-β-thiogalactopyranoside. The Escherichia coli were cultured at 20° C. for 17 to for 18 hr and harvested by centrifugation. The harvested Escherichia coli was resuspended in a suspension buffer (20 mmol/L HEPES-NaOH, 500 mmol/L sodium chloride, 1% ethylene glycol, 0.1% Pluronic (registered trademark) F-68 (pH 8.0), cOmplete, EDTA-free (Roche) (pH 8.0)), and disrupted by a microfluidizer M-110H (MIZUHO INDUSTRIAL CO., LTD.). The precipitate was removed by centrifugation and the supernatant was added to DDDDK-tagged Protein PURIFICATION GEL (MEDICAL & BIOLOGICAL LABORATORIES CO., LTD., Code No. 3329). DDDDK-tagged Protein PURIFICATION GEL was washed with a washing buffer (20 mmol/L HEPES-NaOH, 500 mmol/L sodium chloride, 1% ethylene glycol, 0.1% Pluronic F-68 (pH 8.0)) and the bound protein was eluted with elution buffer 1 (20 mmol/L HEPES-NaOH, 100 μg/mL peptide (amino acid sequence DYKDDDDK) (SEQ ID NO: 1), 500 mmol/L sodium chloride, 1% ethylene glycol, 0.1% Pluronic F-68 (pH 8.0)). The eluted fractions containing FLAG-Tagged protein were pooled, concentrated by an ultrafiltration method, added to a gel filtration column (HiLoad 26/60 Superdex 200 (GE Healthcare Life Sciences, Code No. 17-1070-01)), and eluted with elution buffer 2 (20 mmol/L HEPES-NaOH, 150 mmol/L sodium chloride, 0.5 mmol/L ethylenediaminetetraacetic acid (EDTA), 1% ethylene glycol, 0.1% Pluronic F-68 (pH 8.0)). The eluted fractions were pooled and preserved at −80° C.
PDH (porcine heart PDH complex, Sigma P7032) and 0.5 μg/mL hPDHK2 were mixed in an assay buffer (50 mmol/L 3-morpholinopropanesulfonic acid (pH 7.0), 20 mmol/L dipotassium hydrogen phosphate, 60 mmol/L potassium chloride, 2 mmol/L magnesium chloride, 0.4 mmol/L EDTA, 0.2% poloxamer, 2 mmol/L dithiothreitol) so that the final concentration of PDH was 0.025 U/mL, and the mixture was incubated at 4° C. overnight to obtain a PDH/hPDHK2 complex solution.
PDH was mixed with the assay buffer so that the final concentration was 0.025 U/mL, and the mixture was incubated at 4° C. overnight to prepare a PDH solution.
The test compounds were diluted with DMSO. […] DMSO (1.5 μL) was added to control wells instead of test compound. In addition, DMSO (1.5 μL) was added to blank wells instead of the test compound, and PDH solution was added instead of the PDH/hPDHK2 complex solution. To measure an inhibitory action of the test compound on the PDHK activity inherent in the PDH solution, a test compound was added and the PDH solution instead of the PDH/hPDHK2 complex solution was added to a blank+test compound well.
Then, 10 μL of substrates (5 mmol/L sodium pyruvate, 5 mmol/L Coenzyme A, 12 mmol/L NAD, 5 mmol/L thiamine pyrophosphate, diluted with assay buffer) were added. The mixture was incubated at room temperature for 90 min, and the residual PDH activity was measured.
The absorbance of each well at 340 nm was measured using a microplate reader to detect NADH produced by the PDH reaction. […]

IC50	Structure (SMILES)
29.2 nM	C[C@H]1Cn2nc(C3(F)CC3)cc2-c2cnnc([C@@](C)(O)C(F)(F)F)c21 (racemic) [Example 101, (R)-1,1,1-trifluoro-2-[(R)-9-(1-fluorocyclopropyl)-5-methyl-5,6-dihydropyrazolo[1′,5′:1,2]pyrido[3,4-d]pyridazin-4-yl]propan-2-ol and (S)-1,1,1-trifluoro-2-[(S)-9-(1-fluorocyclopropyl)-5-methyl-5,6-dihydropyrazolo[1′,5′:1,2]pyrido[3,4-d]pyridazin-4-yl]propan-2-ol]
> 100 nM	COC(=O)C12CCC(c3cc4n(n3)C[C@H](C)c3c-4cnnc3[C@@](C)(O)C(F)(F)F)(CC1)CC2 (racemic) [Example 102, methyl 4-[(R)-5-methyl-4-((R)-1,1,1-trifluoro-2-hydroxypropan-2-yl)-5,6-dihydropyrazolo[1′,5′:1,2]pyrido[3,4-d]pyridazin-9-yl]bicyclo[2.2.2]octane-1-carboxylate and methyl 4-[(S)-5-methyl-4-((S)-1,1,1-trifluoro-2-hydroxypropan-2-yl)-5,6-dihydropyrazolo[1′,5′:1,2]pyrido[3,4-d]pyridazin-9-yl]bicyclo[2.2.2]octane-1-carboxylate]
24.3 nM	C[C@H]1Cn2nc(C34CCC(C#N)(CC3)CC4)cc2-c2cnnc([C@@](C)(O)C(F)(F)F)c21 (racemic) [Example 103, 4-[(R)-5-methyl-4-((R)-1,1,1-trifluoro-2-hydroxypropan-2-yl)-5,6-dihydropyrazolo[1′,5′:1,2]pyrido[3,4-d]pyridazin-9-yl]bicyclo[2.2.2]octane-1-carbonitrile and 4-[(S)-5-methyl-4-((S)-1,1,1-trifluoro-2-hydroxypropan-2-yl)-5,6-dihydropyrazolo[1′,5′:1,2]pyrido[3,4-d]pyridazin-9-yl]bicyclo[2.2.2]octane-1-carbonitrile]
36.9 nM	C[C@H]1Cn2nc(C34CC(C#N)(C3)C4)cc2-c2cnnc([C@@](C)(O)C(F)(F)F)c21 (racemic) [Example 104, 3-[(R)-5-methyl-4-((R)-1,1,1-trifluoro-2-hydroxypropan-2-yl)-5,6-dihydropyrazolo[1′,5′:1,2]pyrido[3,4-d]pyridazin-9-yl]bicyclo[1.1.1]pentane-1-carbonitrile and 3-[(S)-5-methyl-4-((S)-1,1,1-trifluoro-2-hydroxypropan-2-yl)-5,6-dihydropyrazolo[1′,5′:1,2]pyrido[3,4-d]pyridazin-9-yl]bicyclo[1.1.1]pentane-1-carbonitrile]
18.2 nM	C[C@H]1Cc2c(cnn2C2CC(C#N)C2)-c2onc([C@@](C)(O)C(F)(F)F)c21 (stereo in doubt) [Example 26]
31.5 nM	C[C@H]1Cc2nn(C3CC(C#N)C3)cc2-c2onc([C@@](C)(O)C(F)(F)F)c21 (stereo in doubt) [Example 27]
23.6 nM	C[C@H]1Cc2c(cnn2C2CC(C#N)C2)-c2onc([C@@](C)(O)C(F)(F)F)c21 (stereo in doubt) [Example 29]
21.2 nM	C[C@H]1Cc2nn(C3CC(C#N)C3)cc2-c2onc([C@@](C)(O)C(F)(F)F)c21 (stereo in doubt) [Example 30]
15.7 nM	C[C@H]1Cc2c(cnn2-c2ccccc2)-c2cnc(C(C)(O)C(F)(F)F)n21 (stereo in doubt) [Example 73, (S)-1,1,1-trifluoro-2-((S)-5-methyl-3-phenyl-4,5-dihydro-3H-imidazo[1,5-a]pyrazolo[4,3-c]pyridin-7-yl)propan-2-ol]
24.3 nM	C[C@H]1Cn2c(nnc2C(F)(F)F)-c2onc([C@@](C)(O)C(F)(F)F)c21 [Example 1, (R)-1,1,1-trifluoro-2-((R)-6-methyl-3-(trifluoromethyl)-5,6-dihydroisoxazolo[5,4-c][1,2,4]triazolo[4,3-a]pyridin-7-yl)propan-2-ol]
19.2 nM	C[C@H]1Cn2c(nnc2C2(C(F)(F)F)CC2)-c2onc([C@@](C)(O)C(F)(F)F)c21 [Example 2]
20.4 nM	C[C@H]1Cn2c(nnc2C(C)(F)F)-c2onc([C@@](C)(O)C(F)(F)F)c21 [Example 3]
10.9 nM	C[C@H]1Cn2c(nnc2C(C)(C)F)-c2onc([C@@](C)(O)C(F)(F)F)c21 [Example 4]
10.6 nM	C[C@H]1Cn2c(nnc2C2CC2)-c2onc([C@@](C)(O)C(F)(F)F)c21 [Example 5]
11.7 nM	Cc1nnc2n1C[C@H](C)c1c([C@@](C)(O)C(F)(F)F)noc1-2 [Example 6]
9.2 nM	C[C@H]1Cn2c(-c3ccc(F)cc3)nnc2-c2onc([C@@](C)(O)C(F)(F)F)c21 [Example 7]
11.7 nM	C[C@H]1Cn2c(nnc2C2(F)CC2)-c2onc([C@@](C)(O)C(F)(F)F)c21 [Example 8]
9.5 nM	C[C@H]1Cn2c(nnc2C23CC(C(F)(F)F)(C2)C3)-c2onc([C@@](C)(O)C(F)(F)F)c21 [Example 9]
9.4 nM	COC(=O)C12CC(c3nnc4n3C[C@H](C)c3c([C@@](C)(O)C(F)(F)F)noc3-4)(C1)C2 [Example 10]
6.6 nM	COC(=O)C12CCC(c3nnc4n3C[C@H](C)c3c([C@@](C)(O)C(F)(F)F)noc3-4)(CC1)CC2 [Example 11]
6 nM	C[C@H]1Cn2c(nnc2C23CCC(C(C)(C)O)(CC2)CC3)-c2onc([C@@](C)(O)C(F)(F)F)c21 [Example 12]
7.5 nM	C[C@H]1Cn2c(nnc2C23CC(C(C)(C)O)(C2)C3)-c2onc([C@@](C)(O)C(F)(F)F)c21 [Example 13]
15.7 nM	C[C@H]1Cn2c(nnc2C(F)F)-c2onc([C@@](C)(O)C(F)(F)F)c21 [Example 25]
8.5 nM	C[C@H]1Cc2[nH]ncc2-c2onc([C@@](C)(O)C(F)(F)F)c21 [Example 28, (R)-1,1,1-trifluoro-2-((S)-4-methyl-5,6-dihydro-4H-isoxazolo[5,4-e]indazol-3-yl)propan-2-ol]
13.7 nM	C[C@H]1Cn2nc(OCC(C)(C)O)cc2-c2onc([C@@](C)(O)C(F)(F)F)c21 [Example 31, (R)-1,1,1-trifluoro-2-((R)-8-(2-hydroxy-2-methylpropoxy)-4-methyl-4,5-dihydroisoxazolo[5,4-c]pyrazolo[1,5-a]pyridin-3-yl)propan-2-ol]
8.7 nM	C[C@H]1Cn2nc(OCC3(C#N)CC3)cc2-c2onc([C@@](C)(O)C(F)(F)F)c21 [Example 33]
5.8 nM	C[C@H]1Cc2c(cnn2CCC(C)(C)O)-c2onc([C@@](C)(O)C(F)(F)F)c21 [Example 40]
9.1 nM	C[C@H]1Cc2nn(CCC(C)(C)O)cc2-c2onc([C@@](C)(O)C(F)(F)F)c21 [Example 41]
7.1 nM	C[C@H]1Cn2nc(OC3CCOCC3)cc2-c2onc([C@@](C)(O)C(F)(F)F)c21 [Example 59, (R)-1,1,1-trifluoro-2-((R)-4-methyl-8-((tetrahydro-2H-pyran-4-yl)oxy)-4,5-dihydroisoxazolo[5,4-c]pyrazolo[1,5-a]pyridin-3-yl)propan-2-ol]

Structure (SMILES)	IC50
C[C@H]1Cc2nn(C3CC3)cc2-c2onc([C@@](C)(O)C(F)(F)F)c21 [Example 19]	13.8 nM
COCCOc1cc2n(n1)C[C@@H](C)c1c([C@](C)(O)C(F)(F)F)noc1-2 [Example 43]	28.2 nM
C[C@@H]1Cc2nn(CC#N)cc2-c2onc([C@](C)(O)C(F)(F)F)c21 [Example 49]	19.5 nM

Same assay, conditions: at 100.0 nM, given when the IC50 value could not be calculated; read-out: hPDHK2 inhibitory rate

inhibition at 0.1 µM	Structure (SMILES)
3%	COC(=O)C12CCC(c3cc4n(n3)C[C@H](C)c3c-4cnnc3[C@@](C)(O)C(F)(F)F)(CC1)CC2 (racemic) [Example 102, methyl 4-[(R)-5-methyl-4-((R)-1,1,1-trifluoro-2-hydroxypropan-2-yl)-5,6-dihydropyrazolo[1′,5′:1,2]pyrido[3,4-d]pyridazin-9-yl]bicyclo[2.2.2]octane-1-carboxylate and methyl 4-[(S)-5-methyl-4-((S)-1,1,1-trifluoro-2-hydroxypropan-2-yl)-5,6-dihydropyrazolo[1′,5′:1,2]pyrido[3,4-d]pyridazin-9-yl]bicyclo[2.2.2]octane-1-carboxylate]
